Values after ≈ are worked out from the molar mass of the structure shown.

This assay has as its system Human alphaherpesvirus 1. Kind of assay: Antiviral activity against HSV1 F ATCC VR733 infected in african green monkey Vero cells assessed as reduction of virus-induced cytopathic effect after 3 days. Type of assay: functional, organism-based. The note with it: Human alphaherpesvirus 1, Strain F ATCC VR 733, Vero, 72 h. For orientation: Damage to the host cells serves as the signal in cytopathic effect assays.
`COC(=O)[C@]12CCCC3=C1[C@@H](C[C@H](C)[C@@]31C[C@H](c3ccoc3)OC1=O)OC2` [CRASSIFOLIN D]: the IC50 stood at 50 µg/mL (≈ 134 µM).

For `COC(=O)[C@@]1(C)CC(=O)C=C2C1=CC[C@@H](C)[C@]2(C)CC(=O)c1ccoc1` [CRASSIFOLIN C], the IC50 worked out at 50 µg/mL (≈ 140 µM).

Take `COC(=O)[C@]1(C)CCCC2=C1CC[C@@H](C)[C@]21C[C@@H](c2ccoc2)OC1=O` [PENDULIFLAWOROSIN]: the IC50 came out at 50 µg/mL (≈ 139 µM).

On to `COC(=O)[C@@]1(C)C2=C(CC[C@H]1OC(C)=O)[C@@]1(C[C@@H](c3ccoc3)OC1=O)[C@H](C)CC2` [CRASSIFOLIN F], for which the IC50 is 50 µg/mL (≈ 120 µM).

Consider `C[C@@H]1CC(=O)[C@@H]2[C@@H](C(=O)O)CCC[C@H]2[C@@]12C[C@@H](c1ccoc1)OC2=O`, for which the concentration for half-maximal inhibition (IC50) came out at 25 µg/mL (≈ 72.2 µM).

Regarding `Nc1nc2c(ncn2COCCO)c(=O)[nH]1` [ACYCLOVIR], the IC50 is 0.2 µg/mL (≈ 0.888 µM).

The IC50 is the concentration that gives 50% inhibition.

For the origin of these results see ChEMBL document CHEMBL2203092, “Clerodane diterpenoids from Croton crassifolius” (J Nat Prod, 2012).
